From patent US20220153718A1, “SYNTHESIS OF STABLE AMORPHOUS APALUTAMIDE” (OLON S.P.A., priority 2019, published 2022)

Assay: Solid-form stability under forced-air drying (XRPD)
Type: physicochemical
Conditions: drying at 90° C. for over 100 hours, under vacuum, in a stove
Experimental: Forced-air drying here means drying at 90° C. for over 100 hours, under vacuum, in a stove.

SMILES | Stability of the amorphous form after forced-air drying
CNC(=O)c1ccc(N2C(=S)N(c3cnc(C#N)c(C(F)(F)F)c3)C(=O)C23CCC3)cc1F [amorphous form obtained by evaporation of the solvent after ] [4-{7-[6-cyano-5-(trifluoromethyl)pyridin-3-yl]-8-oxo-6-sulphanylidene-5,7-diazaspiro[3,4]octan-5-yl}-2-fluoro-N-methylbenzamide] | converted to a mixture of amorphous form, form A and form B
CNC(=O)c1ccc(N2C(=S)N(c3cnc(C#N)c(C(F)(F)F)c3)C(=O)C23CCC3)cc1F [stable amorphous form of apalutamide, 4-{7-[6-cyano-5-(trifluoromethyl)pyridin-3-yl]-8-oxo-6-sulphanylidene-5,7-diazaspiro[3,4]octan-5-yl}-2-fluoro-N-methylbenzamide] | stable
